The test system of one series is sodium channel. In words: Guanidine influx assay (14C-guanidine radiotracer flux, in vitro). The series is classed as cell-based, human or rat. The conditions noted are these: guanidine influx assay using a known cell line that expresses a sodium channel; activity level class. The procedure, abridged:
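Radiotracer read-out: intracellular 14C-guanidine counted after washing with guanidine-supplemented low-sodium buffer. Cells expressing human or rat channels get test agent plus aconitine activator and tracer, incubated at ambient temperature. Dilution series centred on 1 μM; IC50 by sigmoidal dose-response fit.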

For another series, the target named is CYP3A4 (Homo sapiens, UniProt P08684). The series can be described thus: Cytochrome P450 (CYP450) Inhibition Assay, CYP3A4 (Vivid fluorescence, BOMCC substrate). As to conditions: human, P450 Baculosomes (recombinant CYP3A4), probe BOMCC (Vivid substrate).
Sequence of CYP3A4 (P08684 whole entry): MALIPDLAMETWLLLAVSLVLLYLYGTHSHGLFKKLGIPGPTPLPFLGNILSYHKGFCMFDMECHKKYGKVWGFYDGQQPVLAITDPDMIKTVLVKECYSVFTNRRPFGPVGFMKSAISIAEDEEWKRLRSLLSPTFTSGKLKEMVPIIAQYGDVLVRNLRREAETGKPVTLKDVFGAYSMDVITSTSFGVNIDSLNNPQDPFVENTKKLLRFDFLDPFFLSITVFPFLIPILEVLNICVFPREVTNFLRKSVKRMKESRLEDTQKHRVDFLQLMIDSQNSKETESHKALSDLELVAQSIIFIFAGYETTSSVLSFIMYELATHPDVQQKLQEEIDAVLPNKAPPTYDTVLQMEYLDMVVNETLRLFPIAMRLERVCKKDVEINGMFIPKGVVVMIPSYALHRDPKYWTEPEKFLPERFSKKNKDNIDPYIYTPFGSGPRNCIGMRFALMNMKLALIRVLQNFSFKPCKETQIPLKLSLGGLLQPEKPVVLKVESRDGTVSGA

Bounds are passed on as bounds.

As usually defined, the melting point is the temperature, or range, at which the solid turns liquid. The IC50 is the concentration at which inhibition is half-maximal. As a reminder, the inhibition is how much of the control response was suppressed. `Cc1cccc(CN2C(=O)C3(COc4cc5c(cc43)OCCO5)c3ccccc32)n1` (stereo not drawn) [Example 1.1, 1′-[(6-methylpyridin-2-yl)methyl]-2,3-dihydrospiro[furo[2,3-g][1,4]benzodioxine-8,3′-indol]-2′(1′H)-one] gave a melting point of 183 to 185 °C. The IC50 in the series on sodium channel lay in the range of 1 to 100 nM. The inhibition at 10 µM at CYP3A4 was over 50%.
For `Cc1cc(CN2C(=O)C3(COc4cc5c(cc43)OCO5)c3ccccc32)c(C)n1C(C)C` (stereo not drawn) [Example 1.3, 1′-{[2,5-dimethyl-1-(1-methylethyl)-1H-pyrrol-3-yl]methyl}spiro[furo[2,3-f][1,3]benzodioxole-7,3′-indol]-2′(1′H)-one], in that order: 169 to 171 °C, 1 to 100 nM and over 50%.
Turning to `O=C1N(Cc2ccc(Cl)s2)c2ccccc2C12COc1ccc(OCc3ccccc3)cc12` (stereo not drawn) [Example 1.4, 5-(benzyloxy)-1′-[(5-chloro-2-thienyl)methyl]spiro[1-benzofuran-3,3′-indol]-2′(1′H)-one], the melting point is 132 to 135 °C. In addition, the half-maximal inhibitory concentration (IC50) in the series on sodium channel fell in the range of 1000 to 10000 nM. Further, the inhibition at 10 µM at CYP3A4 was over 50%.
The corresponding values for `O=C1Nc2c(Br)cccc2C12COc1cc3c(cc12)OCO3` (stereo not drawn) [Example 1.5, 7′-bromospiro[furo[2,3-f][1,3]benzodioxole-7,3′-indol]-2′(1′H)-one] are 240 °C (dec.), 1 to 100 nM and over 50%.
The corresponding values for `CC(C)c1cc(CN2C(=O)C3(COc4cc5c(cc43)OCO5)c3ccccc32)on1` (stereo not drawn) [Example 1.6, 1′-[(3-isopropylisoxazol-5-yl)methyl]spiro[furo[2,3-f][1,3]benzodioxole-7,3′-indol]-2′(1′H)-one] are 132 to 136 °C, 1 to 100 nM and over 50%.
`Cc1nc(CN2C(=O)C3(COc4cc5c(cc43)OCO5)c3ccccc32)c(C(F)(F)F)o1` (stereo not drawn) [Example 1.9, 1′-{[2-methyl-5-(trifluoromethyl)-1,3-oxazol-4-yl]methyl}spiro[furo[2,3-f][1,3]benzodioxole-7,3′-indol]-2′(1′H)-one] gave a melting point of 136 to 137 °C. The half-inhibitory concentration (IC50) in the series on sodium channel fell in the range of 1 to 100 nM. For the same molecule, the inhibition at 10 µM on CYP3A4 is over 50%.
For `O=C1N(Cc2ccc(Br)cn2)c2ccccc2C12COc1cc3c(cc12)OCCO3` (stereo not drawn) [Example 1.14, 1′-[(5-bromopyridin-2-yl)methyl]-2,3-dihydrospiro[furo[2,3-g][1,4]benzodioxine-8,3′-indol]-2′(1′H)-one], in that order: 201 to 202 °C, 1 to 100 nM and over 50%.
For `O=C1N(Cc2cc(-c3ccc(Cl)cc3)oc2C(F)(F)F)c2ccccc2C12COc1cc3c(cc12)OCO3` (stereo not drawn) [Example 1.15, 1′-{[5-(4-chlorophenyl)-2-(trifluoromethyl)furan-3-yl]methyl}spiro[furo[2,3-f][1,3]benzodioxole-7,3′-indol]-2′(1′H)-one], in that order: 114 to 116 °C, 1000 to 10000 nM and under 50%.
The corresponding values for `Cn1nc(C(F)(F)F)c(CN2C(=O)C3(COc4cc5c(cc43)OCO5)c3ccccc32)c1Cl` (stereo not drawn) [Example 1.16, 1′-{[5-chloro-1-methyl-3-(trifluoromethyl)-1H-pyrazol-4-yl]methyl}spiro[furo[2,3-f][1,3]benzodioxole-7,3′-indol]-2′(1′H)-one] are 180 to 182 °C, 1 to 100 nM and over 50%.
In turn, `Cc1cc2c(cc1C)C1(CO2)C(=O)N(C(c2ccccc2)c2ccccc2)c2ccccc21` (stereo not drawn) [Example 2.3, 1′-(diphenylmethyl)-5,6-dimethylspiro[1-benzofuran-3,3′-indol]-2′(1′H)-one] gave a melting point of 193 to 195 °C. In the series on sodium channel, the IC50 lay in the range of 1000 to 10000 nM. In addition, the inhibition at 10 µM at CYP3A4 was under 50%.
As to `COc1ccc(CN2C(=O)C3(COc4cc5onc(C)c5cc43)c3ccccc32)cc1` (stereo not drawn) [Example 2.6, 1′-(4-methoxybenzyl)-3-methylspiro[furo[3,2-f][1,2]benzisoxazole-5,3′-indol]-2′(1′H)-one], the melting point fell in the range of 138 to 139 °C. Besides, the IC50 in the series with sodium channel lay in the range of 1 to 100 nM. For the same molecule, the inhibition at 10 µM on CYP3A4 is over 50%.
Molecule `O=C1N(C(c2ccccc2)c2ccccc2)c2ccccc2C12COc1ccc(F)cc12` (stereo not drawn) [Example 2.9, 1′-(diphenylmethyl)-5-fluorospiro[1-benzofuran-3,3′-indol]-2′(1′H)-one] yielded a melting point of 182 to 184 °C. Further, the IC50 in the series with sodium channel was 1000 to 10000 nM. In addition, the inhibition at 10 µM at CYP3A4 was under 50%.
For `O=C1N(C(c2ccccc2)c2ccccc2)c2ccccc2C12COc1cc3c(cc12)OCCO3` (stereo not drawn) [Example 2.11, 1′-(diphenylmethyl)-2,3-dihydrospiro[furo[2,3-g][1,4]benzodioxine-8,3′-indol]-2′(1′H)-one], in that order: 183 to 185 °C, 1000 to 10000 nM and under 50%.
`Cc1nc2cc3c(cc2o1)C1(CO3)C(=O)N(C(c2ccccc2)c2ccccc2)c2ccccc21` (stereo not drawn) [Example 2.14, 1′-(diphenylmethyl)-2-methylspiro[furo[2,3-f][1,3]benzoxazole-7,3′-indol]-2′(1′H)-one]: the melting point lay within 240 to 242 °C. Moreover, in the series on sodium channel, the IC50 was at least 10000 nM. Moreover, the inhibition at 10 µM on CYP3A4 is under 50%.
As for `Cn1c(=O)oc2cc3c(cc21)OCC31C(=O)N(C(c2ccccc2)c2ccccc2)c2ccccc21` (stereo not drawn) [Example 2.16, 1′-(diphenylmethyl)-3-methylspiro[furo[2,3-f][1,3]benzoxazole-7,3′-indole]-2,2′(1′H,3H)-dione], the melting point was 228 to 229 °C. Also, in the series with sodium channel, the half-maximal inhibitory concentration (IC50) is at least 10000 nM. The inhibition at 10 µM at CYP3A4 was under 50%.
On to `CC(C)CCN1C(=O)C2(COc3cc4c(cc32)OCCO4)c2c1ccc1ncsc21` (stereo not drawn) [Example 2.24, 6′-isopentyl-3,7-dihydro-2H-spiro[benzofuro[5,6-b][1,4]dioxine-8,8′-thiazolo[5,4-e]indol]-7′(6′H)-one], for which the melting point is 169 to 171 °C. In addition, the half-maximal inhibitory concentration (IC50) in the series on sodium channel lay in the range of 1 to 100 nM. Also, the inhibition at 10 µM on CYP3A4 is over 50%.
In turn, `O=C1N(Cc2ccc(C(F)(F)F)o2)c2cc3c(cc2C12COc1cc4c(cc12)CCO4)OCCO3` (stereo not drawn) [Example 2.25, 6-((5-(trifluoromethyl)furan-2-yl)methyl)-2,3,5′,6′-tetrahydro-2′H-spiro[f-[1,4]dioxino[2,3-f]indole-8,3′-benzofuro[6,5-b]furan]-7(6H)-one] displayed a melting point of 189 to 191 °C. For the same molecule, the IC50 in the series on sodium channel was in the range of 100 to 1000 nM. Further, at CYP3A4, the inhibition at 10 µM was over 50%.
For `O=C1N(C[C@H]2CCCO2)c2cc3c(cc2C12COc1cc4c(cc12)CCO4)OCCO3` (stereo partly drawn) [Example 2.26, 6-(((R)-tetrahydrofuran-2-yl)methyl)-2,3,5′,6′-tetrahydro-2′H-spiro[[1,4]dioxino[2,3-f]indole-8,3′-benzofuro[6,5-b]furan]-7(6H)-one], in that order: 220 to 225 °C, 1000 to 10000 nM and under 50%.
For `CN1CCOc2cc3c(cc21)C1(CO3)C(=O)N(Cc2ccc(C(F)(F)F)o2)c2ccccc21.Cl` (stereo not drawn) [Example 2.28, 1-methyl-1′-{[5-(trifluoromethyl)furan-2-yl]methyl}-2,3-dihydro-1H-spiro[furo[3,2-g][1,4]benzoxazine-8,3′-indol]-2′(1′H)-one hydrochloride], in that order: 105 °C (dec.), 100 to 1000 nM and over 50%.
Turning to `CN1CCOc2cc3c(cc21)C1(CO3)C(=O)N(C[C@H]2CCCO2)c2ccccc21.Cl` (stereo partly drawn) [Example 2.29, 1-methyl-1′-[(2R)-tetrahydrofuran-2-ylmethyl]-2,3-dihydro-1H-spiro[furo[3,2-g][1,4]benzoxazine-8,3′-indol]-2′(1′H)-one hydrochloride], the melting point was > 135 °C (dec.). For the same molecule, the half-inhibitory concentration (IC50) in the series on sodium channel was 100 to 1000 nM. Also, the inhibition at 10 µM at CYP3A4 is under 50%.
`CN1CCOc2cc3c(cc21)OCC31C(=O)N(C[C@H]2CCCO2)c2ccccc21` (stereo partly drawn) [Example 2.30, 4-methyl-1′-[(2R)-tetrahydrofuran-2-ylmethyl]-3,4-dihydro-2H-spiro[furo[2,3-g][1,4]benzoxazine-8,3′-indol]-2′(1′H)-one] had a melting point of 138 to 140 °C. Further, in the series on sodium channel, the IC50 is 1000 to 10000 nM. On CYP3A4, the inhibition at 10 µM was over 50%.
In turn, `O=C1N(Cc2ncccc2C(F)(F)F)c2ccccc2C12COc1cc3c(cc12)OC(F)(F)O3` (stereo not drawn) [Example 2.36, 2,2-difluoro-1′-{[3-(trifluoromethyl)pyridin-2-yl]methyl}spiro[furo[2,3-f][1,3]benzodioxole-7,3′-indol]-2′(1′H)-one] displayed a melting point of 200 to 201 °C. Besides, in the series on sodium channel, the IC50 lay in the range of 1000 to 10000 nM. Further, at CYP3A4, the inhibition at 10 µM is under 50%.
The corresponding values for `COc1ccc(CN2C(=O)C3(COc4cc5c(cc43)CCO5)c3c2ccc2ncccc32)cc1` (stereo not drawn) [Example 2.38, 3′-(4-methoxybenzyl)-5,6-dihydrospiro[benzo[1,2-b:5,4-b′]difuran-3,1′-pyrrolo[3,2-f]quinolin]-2′(3′H)-one] are 169 to 170 °C, 100 to 1000 nM and over 50%.
The corresponding values for `COc1ccc(CN2C(=O)C3(COc4cc(O)c(C#N)cc43)c3ccccc32)cc1` (stereo not drawn) [Example 2.39, 6-hydroxy-1′-(4-methoxybenzyl)-2′-oxo-1′,2′-dihydrospiro[1-benzofuran-3,3′-indole]-5-carbonitrile] are 112 to 114 °C, 1000 to 10000 nM and over 50%.
